What is called ED50 is the midpoint of the dose-response relation. A low value points to an effect at a small dose. The EC50 is the concentration at which the effect is half-maximal.

The text below walks through data of patent publication US12570612B2, “Substituted nitrogen heterocyclic compound and anesthetic effect thereof” (priority 2019, dated 2026).

Structures are written as SMILES.

In series [1] the test system is Sprague-Dawley rats. Nature of the series: animal or person. The conditions noted are these: for ED50: LORR in rats, tail vein, brackets = 95% confidence limit; for Approximate therapeutic index / Minimal lethal dose: rats. How it is done:
Adult male Sprague-Dawley rats (250-300 g) were selected for the experiment. […] The anesthesia effects of the compounds were assessed in rats using a LORR assay and a period >30 s was considered as an indicator of general anesthesia.

The test system of series [2] is H295R cell line. Nature of the series: Adrenocortical function in vitro test: secretion of cortisol and corticosterone, Group B compounds. The series is classed as cell-based. Particulars: H295R cells; for EC50: 0.1-10000 nM, HPLC-MS/MS.
The test system of series [3] is H295R cell line. Nature of the series: Adrenocortical function in vitro test: secretion of cortisol and corticosterone, Group A compounds. The series is classed as cell-based. The conditions noted are these: H295 cells; for EC50: 0.1-10000 nM, HPLC-MS/MS.
Setting [4] is: Homo sapiens, NCI-H295R, read-out: EC50 (Corticosterone).
Setting [5] is: Homo sapiens, NCI-H295R, read-out: EC50 (Cortisol).
Where [6] appears, read: read-out: EC50 (Corticosterone).

With `CCSC(=O)c1c(Br)nnn1[C@H](C)c1ccccc1` [Compound B120], the ED50 in series [1] (Rattus norvegicus) lay within 0.5 to 1 mg/kg. Further, in series [1], the Approximate therapeutic index is above 21 and the Minimal lethal dose is listed as above 15 mg/kg. For the same molecule, in series [2], the “Corticosterone as an indicator to determine the presence of inhibition” value (“Corticosterone as an indicator … of inhibition” for short) was 0 and the “Cortisol as an indicator to determine the presence of inhibition” value (from here on “Cortisol as an indicator … of inhibition”) is reported as 0. For the same molecule, the EC50 in series [2] (setting [4]) is above 1 µM. Moreover, the EC50 in series [2] (setting [5]) is above 1 µM.
Molecule `CC(C)O[C@H]1C[C@@H](OC(=O)c2cnnn2[C@H](C)c2ccccc2)C1` [Compound B26] showed an ED50 in series [1] (Rattus norvegicus) of 1 to 2 mg/kg. In series [1], this molecule registered an Approximate therapeutic index above 10 and a Minimal lethal dose above 12 mg/kg. Also, in series [2], the “Corticosterone as an indicator … of inhibition” value stood at 0 and the “Cortisol as an indicator … of inhibition” value came out at 0. For the same molecule, the EC50 in series [2] (setting [4]) was above 0.1 µM. For the same molecule, in series [2] (setting [5]), the EC50 is above 0.1 µM.
Consider `C[C@H](c1ccccc1)n1nnc(Br)c1C(=O)OC1CCC1` [Compound B104], for which, in series [1], the ED50 result was “C (C indicates that the measured ED50 is in the range of 1.00-2.00 mg/kg (excluding 1.00 mg/kg, including 2.00 mg/kg))”; the Approximate therapeutic index is listed as above 10; the Minimal lethal dose is given as above 11 mg/kg. Besides, in series [2], the “Corticosterone as an indicator … of inhibition” value worked out at 0 and the “Cortisol as an indicator … of inhibition” value is on record as 0. The EC50 in series [2] (setting [6]) was above 3 µM. Moreover, the EC50 in series [2] (read-out: EC50 (Cortisol)) was above 3 µM.
In series [1] (Rattus norvegicus), `CC(C)OC(=O)c1cnnn1[C@H](C)c1ccccc1` [Compound B17] came in with an ED50 of 0.04 to 0.5 mg/kg. For the same molecule, in series [1], the Approximate therapeutic index was above 56 and the Minimal lethal dose was above 16 mg/kg. In series [2], the “Corticosterone as an indicator … of inhibition” value is 0 and the “Cortisol as an indicator … of inhibition” value is reported as 0. The EC50 in series [2] (setting [4]) was above 1 µM. Further, in series [2] (setting [5]), the EC50 was above 1 µM.
Consider `C=CCOC(=O)c1c(Br)nnn1[C@H](C)c1ccccc1` [Compound B108], for which, in series [1], the ED50 entry was “B (B indicates that the measured ED50 is in the range of 0.50-1.00 mg/kg (excluding 0.50 mg/kg, including 1.00 mg/kg))”; the Approximate therapeutic index is above 20; the Minimal lethal dose was above 14 mg/kg. Further, in series [2], the “Corticosterone as an indicator … of inhibition” value turned out to be 0 and the “Cortisol as an indicator … of inhibition” value is 0. Also, the EC50 in series [2] (setting [6]) is above 3 µM. Also, in series [2] (read-out: EC50 (Cortisol)), the EC50 is above 3 µM.
In series [1] (Rattus norvegicus), `C=C=CC1(OC(=O)c2c(I)nnn2[C@H](C)c2ccccc2)CCCCC1` [Compound B137] showed an ED50 of 1 to 2 mg/kg. In series [1], this molecule gave an Approximate therapeutic index above 9 and a Minimal lethal dose above 12 mg/kg. For the same molecule, in series [2], the “Corticosterone as an indicator … of inhibition” value stood at 0 and the “Cortisol as an indicator … of inhibition” value is recorded as 0. For the same molecule, in series [2] (setting [4]), the EC50 was above 1 µM. Further, the EC50 in series [2] (setting [5]) is above 1 µM.
In series [1] (Rattus norvegicus), `C[C@H](c1ccccc1)n1nnc(I)c1C(=O)OC1CC1` [Compound B144] came in with an ED50 of 10 to 20 mg/kg. In series [1], this molecule returned an Approximate therapeutic index above 2 and a Minimal lethal dose above 24 mg/kg. Besides, in series [2], the “Corticosterone as an indicator … of inhibition” value amounted to 0 and the “Cortisol as an indicator … of inhibition” value amounted to 0. Also, the EC50 in series [2] (setting [4]) is above 1 µM. Besides, in series [2] (setting [5]), the concentration for a half-maximal effect (EC50) was above 1 µM.
Regarding `CCOC(=O)c1c(Br)nnn1[C@H](C)c1ccccc1` [Compound B99], in series [1], the ED50 result is “A (A indicates that the measured ED50 is in the range of 0.04-0.50 mg/kg (including 0.04 and 0.50 mg/kg))”; the Approximate therapeutic index is above 16; the Minimal lethal dose is reported as above 8 mg/kg. Further, in series [2], the “Corticosterone as an indicator … of inhibition” value was 0 and the “Cortisol as an indicator … of inhibition” value is given as 0. Also, the EC50 in series [2] (setting [6]) was above 3 µM. Moreover, in series [2] (read-out: EC50 (Cortisol)), the EC50 is above 3 µM.
`C[C@H](c1ccccc1)n1nnc(I)c1C(=O)OC1CCC1` [Compound B132] had a 50% effective dose (ED50) in series [1] (Rattus norvegicus) of 0.5 to 1 mg/kg. In series [1], the Approximate therapeutic index was above 16 and the Minimal lethal dose is recorded as above 12 mg/kg. In series [2], the “Corticosterone as an indicator … of inhibition” value worked out at 0 and the “Cortisol as an indicator … of inhibition” value was 0. Further, the EC50 in series [2] (setting [4]) is above 1 µM. In series [2] (setting [5]), the EC50 was above 1 µM.
In the case of `CCOC(=O)c1cnnn1[C@H](C)c1ccccc1` [Compound B1], in series [1], the ED50 result is “A (A indicates that the measured ED50 is in the range of 0.04-0.50 mg/kg (including 0.04 and 0.50 mg/kg))”; the Approximate therapeutic index was above 20; the Minimal lethal dose is reported as above 8 mg/kg. Further, in series [2], the “Corticosterone as an indicator … of inhibition” value was found to be 0 and the “Cortisol as an indicator … of inhibition” value amounted to 0. Also, in series [2] (setting [6]), the EC50 was above 0.1 µM. For the same molecule, in series [2] (read-out: EC50 (Cortisol)), the EC50 was above 0.05 µM.
On to `C=CC(CC)OC(=O)c1cnnn1[C@H](C)c1ccccc1` (stereo partly drawn) [Compound B13], for which, in series [1] (Rattus norvegicus), the 50% effective dose (ED50) is 0.5 to 1 mg/kg. In addition, in series [1], the Approximate therapeutic index is listed as above 2 and the Minimal lethal dose was above 1 mg/kg. Also, in series [2], the “Corticosterone as an indicator … of inhibition” value is 0 and the “Cortisol as an indicator … of inhibition” value was 0. For the same molecule, the concentration for a half-maximal effect (EC50) in series [2] (setting [4]) was above 1 µM. In addition, in series [2] (setting [5]), the EC50 is above 1 µM.
As for `CO[C@H]1C[C@@H](OC(=O)c2cnnn2[C@H](C)c2ccccc2)C1` [Compound B8], the ED50 in series [1] (Rattus norvegicus) was 0.5 to 1 mg/kg. In series [1], this molecule gave an Approximate therapeutic index above 9 and a Minimal lethal dose above 8 mg/kg. In series [2], the “Corticosterone as an indicator … of inhibition” value was 0 and the “Cortisol as an indicator … of inhibition” value was found to be 0. Also, the EC50 in series [2] (setting [4]) is above 1 µM. In series [2] (setting [5]), the EC50 was above 1 µM.
`C[C@H](c1ccccc1)n1nnc(I)c1C(=O)OCC1CC1` [Compound B133]: the ED50 in series [1] (Rattus norvegicus) is 0.5 to 1 mg/kg. In addition, in series [1], the Approximate therapeutic index was above 20 and the Minimal lethal dose is given as above 14 mg/kg. For the same molecule, in series [2], the “Corticosterone as an indicator … of inhibition” value is given as 0 and the “Cortisol as an indicator … of inhibition” value came out at 0. Further, in series [2] (setting [4]), the EC50 was above 1 µM. In addition, in series [2] (setting [5]), the EC50 is above 1 µM.
Regarding `CO[C@H]1C[C@@H](OC(=O)c2c(F)nnn2[C@H](C)c2ccccc2)C1` [Compound B40], the ED50 in series [1] (Rattus norvegicus) lay within 0.5 to 1 mg/kg. For the same molecule, in series [1], the Approximate therapeutic index is above 6 and the Minimal lethal dose was above 6 mg/kg. Moreover, in series [2], the “Corticosterone as an indicator … of inhibition” value came to 0 and the “Cortisol as an indicator … of inhibition” value was 0. Also, in series [2] (setting [4]), the EC50 is above 0.1 µM. Moreover, the EC50 in series [2] (setting [5]) is above 0.1 µM.
On to `C=CCOC(=O)c1c(I)nnn1[C@H](C)c1ccccc1` [Compound B136], for which, in series [1], the ED50 entry is “D (D indicates that the measured ED50 is in the range of 2.00-10.00 mg/kg (excluding 2.00 mg/kg, including 10.00 mg/kg))”; the Approximate therapeutic index is on record as above 6; the Minimal lethal dose is listed as above 18 mg/kg. Moreover, in series [2], the “Corticosterone as an indicator … of inhibition” value stood at 0 and the “Cortisol as an indicator … of inhibition” value amounted to 0. Also, in series [2] (setting [6]), the EC50 is above 1 µM. For the same molecule, in series [2] (read-out: EC50 (Cortisol)), the EC50 was above 1 µM.
In the case of `C=CCOC(=O)c1cnnn1[C@H](C)c1ccccc1` [Compound B10], the ED50 in series [1] (Rattus norvegicus) was 0.5 to 1 mg/kg. Further, in series [1], the Approximate therapeutic index was above 16 and the Minimal lethal dose is above 11 mg/kg. In addition, in series [2], the “Corticosterone as an indicator … of inhibition” value stood at 0 and the “Cortisol as an indicator … of inhibition” value is on record as 0. Moreover, in series [2] (setting [4]), the EC50 was above 0.1 µM. Besides, the EC50 in series [2] (setting [5]) is above 0.1 µM.
As to `COC(=O)C1=C(OC(=O)c2cnnn2[C@H](C)c2ccccc2)CCCC1` [Compound B30], the ED50 in series [1] (Rattus norvegicus) was in the range of 0.5 to 1 mg/kg. In series [1], the Approximate therapeutic index is on record as above 10 and the Minimal lethal dose is recorded as above 10 mg/kg. Besides, in series [2], the “Corticosterone as an indicator … of inhibition” value came out at 0 and the “Cortisol as an indicator … of inhibition” value came out at 0. Moreover, the EC50 in series [2] (setting [4]) is above 1 µM. Also, in series [2] (setting [5]), the concentration for a half-maximal effect (EC50) was above 1 µM.
With `CCOC(=O)c1c(Cl)nnn1[C@H](C)c1ccccc1` [Compound B65], the ED50 in series [1] (Rattus norvegicus) was in the range of 0.5 to 1 mg/kg. In series [1], this molecule gave an Approximate therapeutic index above 13 and a Minimal lethal dose above 9 mg/kg. For the same molecule, in series [2], the “Corticosterone as an indicator … of inhibition” value is on record as 0 and the “Cortisol as an indicator … of inhibition” value is recorded as 0. The EC50 in series [2] (setting [4]) is above 1 µM. In series [2] (setting [5]), the EC50 was above 1 µM.
Molecule `C[C@H](c1ccccc1)n1nnc(I)c1C(=O)OC1(C)COC1` [Compound B140] returned an ED50 in series [1] (Rattus norvegicus) of 10 to 20 mg/kg. In series [1], this molecule showed an Approximate therapeutic index above 2 and a Minimal lethal dose above 30 mg/kg. In series [2], the “Corticosterone as an indicator … of inhibition” value stood at 0 and the “Cortisol as an indicator … of inhibition” value stood at 0. In series [2] (setting [4]), the EC50 is above 1 µM. Besides, the concentration for a half-maximal effect (EC50) in series [2] (setting [5]) was above 1 µM.
`C[C@H](c1ccccc1)n1cncc1C(=O)O` [Etomidate acid, etomidate acid, reference compound]: the “Corticosterone as an indicator … of inhibition” value in series [3] and in series [2] was 0 throughout. Further, the “Cortisol as an indicator … of inhibition” value in series [3] and in series [2] was 0 each time. Also, the EC50 in series [3] (setting [6]), in series [3] (read-out: EC50 (Cortisol)), in series [2] (setting [6]) and in series [2] (read-out: EC50 (Cortisol)) was above 10 µM each time.
